Data reported in patent US11866450B2, “Modulators of Cystic Fibrosis Transmembrane Conductance regulator, pharmaceutical compositions, methods of treatment, and process for making the modulators” (priority 2018, dated 2024).
Where two headings read alike, the source gives them in different places.

What was measured:
[1] = snar bond, DMSO
[2] = target: CFTR-mediated chloride transport (Homo sapiens, UniProt P13569); assay type: cell-based; settings: enteroid cells incubated with test compound 18-24 hours, acute 10 μM forskolin and 300 nM Compound III; for Max. Activity: % of chloride transport with 3 μM Compound A, 3 μM Compound II and 300 nM acute Compound III triple combination control
In short: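 Human intestinal enteroid cells incubated with compound 18–24 h at 37° C., then membrane potential dye (FLIPR) read 15 min after chloride-free stimulation with 10 μM forskolin, 100 μM IBMX and 300 nM Compound III. AUC expressed as % of triple-combination control (3 μM Compound A, 3 μM Compound II, 300 nM Compound III).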

Sequence of CFTR-mediated chloride transport (P13569 whole entry, looked up): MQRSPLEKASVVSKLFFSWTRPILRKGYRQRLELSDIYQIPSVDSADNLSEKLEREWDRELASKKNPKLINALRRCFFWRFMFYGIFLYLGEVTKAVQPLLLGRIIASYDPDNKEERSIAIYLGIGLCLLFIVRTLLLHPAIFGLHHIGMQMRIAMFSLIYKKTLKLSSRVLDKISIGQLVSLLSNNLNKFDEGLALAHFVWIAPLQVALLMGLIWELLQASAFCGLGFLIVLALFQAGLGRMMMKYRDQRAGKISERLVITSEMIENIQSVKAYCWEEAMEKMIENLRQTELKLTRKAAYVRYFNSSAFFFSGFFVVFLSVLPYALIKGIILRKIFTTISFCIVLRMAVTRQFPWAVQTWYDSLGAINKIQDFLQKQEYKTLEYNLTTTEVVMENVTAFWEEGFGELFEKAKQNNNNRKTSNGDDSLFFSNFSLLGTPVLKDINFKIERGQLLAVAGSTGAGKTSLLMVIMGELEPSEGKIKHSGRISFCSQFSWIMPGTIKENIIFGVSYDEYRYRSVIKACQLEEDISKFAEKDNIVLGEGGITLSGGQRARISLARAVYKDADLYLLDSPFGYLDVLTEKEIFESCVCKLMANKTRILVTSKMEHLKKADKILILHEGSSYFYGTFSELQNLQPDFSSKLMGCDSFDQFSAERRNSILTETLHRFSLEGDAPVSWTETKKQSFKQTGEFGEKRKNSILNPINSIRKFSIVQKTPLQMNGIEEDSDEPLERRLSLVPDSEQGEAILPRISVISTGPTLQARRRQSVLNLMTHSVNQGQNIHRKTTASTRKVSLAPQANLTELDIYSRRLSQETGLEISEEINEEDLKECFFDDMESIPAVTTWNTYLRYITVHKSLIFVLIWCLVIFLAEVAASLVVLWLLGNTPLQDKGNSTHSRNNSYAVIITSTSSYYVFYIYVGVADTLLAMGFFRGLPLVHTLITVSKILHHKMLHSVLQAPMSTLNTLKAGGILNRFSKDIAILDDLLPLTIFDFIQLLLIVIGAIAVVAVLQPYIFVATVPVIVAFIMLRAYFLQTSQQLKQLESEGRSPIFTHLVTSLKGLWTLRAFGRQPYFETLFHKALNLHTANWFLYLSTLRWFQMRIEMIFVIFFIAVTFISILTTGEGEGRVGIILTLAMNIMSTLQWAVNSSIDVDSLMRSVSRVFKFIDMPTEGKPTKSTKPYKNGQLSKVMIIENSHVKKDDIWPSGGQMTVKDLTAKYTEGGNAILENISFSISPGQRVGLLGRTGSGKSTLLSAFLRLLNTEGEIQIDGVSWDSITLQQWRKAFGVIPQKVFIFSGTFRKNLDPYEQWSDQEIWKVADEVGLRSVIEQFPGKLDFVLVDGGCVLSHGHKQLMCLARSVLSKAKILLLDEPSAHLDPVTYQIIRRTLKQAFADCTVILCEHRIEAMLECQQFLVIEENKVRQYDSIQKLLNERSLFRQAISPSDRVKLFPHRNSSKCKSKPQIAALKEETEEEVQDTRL

CC1(C)C[C@@H]2CCCNc3cccc(n3)S(=O)(=O)NC(=O)c3ccc(-n4cccc(OCCC5(C(F)(F)F)CC5)c4=O)nc3N1C2 [Compound 268, (14S)-12,12-Dimethyl-8-(2-oxo-3-{2-[1-(trifluoromethyl)cyclopropyl]ethoxy}-1,2-dihydropyridin-1-yl)-2λ^6-thia-3,9,11,18,23-pentaazatetracyclo[17.3.1.111,14.05,10]tetracosa-1(23),5(10),6,8,19,21-hexaene-2,2,4-trione]
ring closure, yield after HPLC ([1]; from CC(C)(C)OC(=O)N1C[C@@H](CCCNc2cccc(S(=O)(=O)NC(=O)c3ccc(-n4cccc(OCCC5(C(F)(F)F)CC5)c4=O)nc3Cl)n2)CC1(C)C, 15-membered ring, K2CO3/CsF/3A MS, 12.0 mM, 150.0 °C, 2 steps): 49%
EC50 [2]: > 3000 nM
Max. Activity [2]: ++ (++ is 30-60%)

CC1(C)CC2CN1c1nc(-n3ccc(OCCC(C4CC4)C4CC4)n3)ccc1C(=O)NS(=O)(=O)c1cccc(n1)NCCO2 (racemic) [Compound 156, 8-[3-(3,3-Dicyclopropylpropoxy)-1H-pyrazol-1-yl]-12,12-dimethyl-15-oxa-2λ^6-thia-3,9,11,18,23-pentaazatetracyclo[17.3.1.111,14.05,10]tetracosa-1(23),5,7,9,19,21-hexaene-2,2,4-trione]
ring closure, yield after HPLC ([1]; from CC1(C)CC(OCCNc2cccc(S(=O)(=O)NC(=O)c3ccc(-n4ccc(OCCC(C5CC5)C5CC5)n4)nc3Cl)n2)CN1, 15-membered ring, K2CO3/CsF/3A MS, 121.6 mM, 150.0 °C): 30%
EC50 [2]: < 1000 nM
Max. Activity [2]: +++ (+++ is >60%)

CC1(C)CC2CCCCNc3cccc(n3)S(=O)(=O)NC(=O)c3ccc(-n4cc(OCCC5(C(F)(F)F)CC5)cn4)nc3N1C2 (racemic) [Compound 70, 12,12-Dimethyl-8-(4-{2-[1-(trifluoromethyl)cyclopropyl]ethoxy}-1H-pyrazol-1-yl)-2λ^6-thia-3,9,11,19,24-pentaazatetracyclo[18.3.1.111,14.05,10]pentacosa-1(23),5,7,9,20(24),21-hexaene-2,2,4-trione]
ring closure, yield after HPLC ([1]; from CC1(C)CC(CCCCNc2cccc(S(=O)(=O)NC(=O)c3ccc(-n4cc(OCCC5(C(F)(F)F)CC5)cn4)nc3Cl)n2)CN1, 16-membered ring, K2CO3/CsF/3A MS, 164.4 mM, 150.0 °C): 24%
EC50 [2]: < 1000 nM
Max. Activity [2]: ++ (++ is 30-60%)

CC1(C)CC2CN1c1nc(-n3ccc(OCCC4(C(F)(F)F)CC4)n3)ccc1C(=O)NS(=O)(=O)c1cccc(n1)NCCO2 (stereo not drawn) [Compound 69, 12,12-dimethyl-8-(3-{2-[1-(trifluoromethyl)cyclopropyl]ethoxy}-1H-pyrazol-1-yl)-15-oxa-2λ^6-thia-3,9,11,18,23-pentaazatetracyclo[17.3.1.111,14.05,10]tetracosa-1(22),5(10),6,8,19(23),20-hexaene-2,2,4-trione]
ring closure, yield after HPLC ([1]; from CC(C)(C)OC(=O)N1CC(OCCNc2cccc(S(=O)(=O)NC(=O)c3ccc(-n4ccc(OCCC5(C(F)(F)F)CC5)n4)nc3Cl)n2)CC1(C)C, 15-membered ring, HCl (Boc off), K2CO3/CsF/3A MS, 62.3 mM, 150.0 °C, 2 steps): 61%
EC50 [2]: < 1000 nM
Max. Activity [2]: +++ (+++ is >60%)

CC1(C)CC2CCCCc3cccc(n3)S(=O)(=O)NC(=O)c3ccc(-n4ccc(OCCC5(C(F)(F)F)CC5)n4)nc3N1C2 (stereo not drawn) [Compound 78, 12,12-dimethyl-8-(3-{2-[1-(trifluoromethyl)cyclopropyl]ethoxy}-1H-pyrazol-1-yl)-2λ^6-thia-3,9,11,23-tetraazatetracyclo[17.3.1.111,14.05,10]tetracosa-1(23),5,7,9,19,21-hexaene-2,2,4-trione]
ring closure, yield after HPLC ([1]; from CC(C)(C)OC(=O)N1CC(CCCCc2cccc(S(=O)(=O)NC(=O)c3ccc(-n4ccc(OCCC5(C(F)(F)F)CC5)n4)nc3Cl)n2)CC1(C)C, 15-membered ring, HCl (Boc off), K2CO3/CsF/3A MS, 65.0 mM, 150.0 °C, 2 steps): 37%
EC50 [2]: < 1000 nM
Max. Activity [2]: +++ (+++ is >60%)

CC1(C)CC2CN1c1nc(-n3ccc(OCCC4C5(CC5)C45CC5)n3)ccc1C(=O)NS(=O)(=O)c1cccc(n1)NCCO2 (racemic) [Compound 188, 8-[3-(2-{Dispiro[2.0.2.1]heptan-7-yl}ethoxy)-1H-pyrazol-1-yl]-12,12-dimethyl-15-oxa-2λ^6-thia-3,9,11,18,23-pentaazatetracyclo[17.3.1.111,14.05,10]tetracosa-1(23),5(10),6,8,19,21-hexaene-2,2,4-trione]
ring closure, yield after HPLC ([1]; from CC1(C)CC(OCCNc2cccc(S(=O)(=O)NC(=O)c3ccc(-n4ccc(OCCC5C6(CC6)C56CC6)n4)nc3Cl)n2)CN1, 15-membered ring, K2CO3/CsF/3A MS, 108.4 mM, 140.0 °C, 20.0 h, 2 steps): 97%
EC50 [2]: < 1000 nM
Max. Activity [2]: +++ (+++ is >60%)

CC1(C)CC2CN1c1nc(-n3ccc(OCCC4(C(F)(F)F)CC4)n3)ccc1C(=O)NS(=O)(=O)c1cccc(n1)N2 (stereo not drawn) [Compound 31, 5,5-dimethyl-9-(3-{2-[1-(trifluoromethyl)cyclopropyl]ethoxy}-1H-pyrazol-1-yl)-15λ^6-thia-2,6,8,14,20-pentaazatetracyclo[14.3.1.13,6.07,12]henicosa-1(20),7,9,11,16,18-hexaene-13,15,15-trione]
ring closure, yield after HPLC ([1]; from 2-chloro-N-[[6-[(5,5-dimethylpyrrolidin-3-yl)amino]-2-pyridyl]sulfonyl]-6-[3-[2-[1-(trifluoromethyl)cyclopropyl]ethoxy]pyrazol-1-yl]pyridine-3-carboxamide (dihydrochloride salt), 12-membered ring, K2CO3/CsF/4A MS, 10.5 mM, 150.0 °C): 37%
EC50 [2]: > 3000 nM
Max. Activity [2]: + (+ is <30%)

CC1(C)CC2CCCCNc3ccc(cn3)S(=O)(=O)NC(=O)c3ccc(-n4ccc(OCCC(C5CC5)C5CC5)n4)nc3N1C2 (stereo not drawn) [Compound 130, 8-[3-(3,3-Dicyclopropylpropoxy)-1H-pyrazol-1-yl]-12,12-dimethyl-2λ^6-thia-3,9,11,19,21-pentaazatetracyclo[18.2.2.111,14.05,10]pentacosa-1(22),5,7,9,20,23-hexaene-2,2,4-trione]
ring closure, yield after HPLC ([1]; from CC(C)(C)OC(=O)N1CC(CCCCNc2ccc(S(=O)(=O)NC(=O)c3ccc(-n4ccc(OCCC(C5CC5)C5CC5)n4)nc3Cl)cn2)CC1(C)C, 17-membered ring, K2CO3/CsF/3A MS, 107.7 mM, 160.0 °C, 2 steps): 15%
EC50 [2]: < 1000 nM
Max. Activity [2]: +++ (+++ is >60%)

CC1(C)CC2CN1c1nc(-n3ccc(OCCC4(C(F)(F)F)CC4)n3)ccc1C(=O)NS(=O)(=O)c1ccnn1CCO2 (stereo not drawn) [Compound 152, 21,21-dimethyl-4-(3-{2-[1-(trifluoromethyl)cyclopropyl]ethoxy}-1H-pyrazol-1-yl)-18-oxa-10λ^6-thia-1,3,9,14,15-pentaazatetracyclo[17.2.1.02,7.011,15]docosa-2(7),3,5,11,13-pentaene-8,10,10-trione]
ring closure, yield after HPLC ([1]; from CC(C)(C)OC(=O)N1CC(OCCn2ccc(S(=O)(=O)NC(=O)c3ccc(-n4ccc(OCCC5(C(F)(F)F)CC5)n4)nc3Cl)n2)CC1(C)C, 13-membered ring, K2CO3/CsF/3A MS, 62.0 mM, 140.0 °C, 2 steps): 34%
EC50 [2]: > 3000 nM
Max. Activity [2]: + (+ is <30%)

Cc1nn2cc1S(=O)(=O)NC(=O)c1ccc(-n3ccc(OCCC4(C(F)(F)F)CC4)n3)nc1N1CC(CCCC2)CC1(C)C (stereo not drawn) [Compound 71, 12,21,21-trimethyl-4-(3-{2-[1-(trifluoromethyl)cyclopropyl]ethoxy}-1H-pyrazol-1-yl)-10λ^6-thia-1,3,9,13,14-pentaazatetracyclo[17.2.1.111,14.02,7]tricosa-2,4,6,11(23),12-pentaene-8,10,10-trione]
ring closure, yield after HPLC ([1]; from Cc1nn(CCCCC2CNC(C)(C)C2)cc1S(=O)(=O)NC(=O)c1ccc(-n2ccc(OCCC3(C(F)(F)F)CC3)n2)nc1Cl, 15-membered ring, K2CO3/CsF, 130.1 mM, 150.0 °C): 50%
EC50 [2]: > 3000 nM
Max. Activity [2]: + (+ is <30%)

CC(C)C(COc1ccn(-c2ccc3c(n2)N2CC(CCCNc4cccc(n4)S(=O)(=O)NC3=O)CC2(C)C)n1)C(C)C (stereo not drawn) [Compound 220, 12,12-Dimethyl-8-{3-[3-methyl-2-(propan-2-yl)butoxy]-1H-pyrazol-1-yl}-2λ^6-thia-3,9,11,18,23-pentaazatetracyclo[17.3.1.111,14.05,10]tetracosa-1(23),5(10),6,8,19,21-hexaene-2,2,4-trione]
ring closure, yield after HPLC ([1]; from CC(C)C(COc1ccn(-c2ccc(C(=O)NS(=O)(=O)c3cccc(NCCCC4CCC(C)(C)N4C(=O)OC(C)(C)C)n3)c(Cl)n2)n1)C(C)C, 15-membered ring, K2CO3/CsF/3A MS, 83.8 mM, 140.0 °C, 2 steps): 39%
EC50 [2]: < 1000 nM
Max. Activity [2]: +++ (+++ is >60%)

CC(C)C(COc1ccn(-c2ccc3c(n2)N2CC(CC2(C)C)OCCNc2cccc(n2)S(=O)(=O)NC3=O)n1)C(C)C (stereo not drawn) [Compound 238, 12,12-dimethyl-8-{3-[3-methyl-2-(propan-2-yl)butoxy]-1H-pyrazol-1-yl}-15-oxa-2λ^6-thia-3,9,11,18,23-pentaazatetracyclo[17.3.1.111,14.05,10]tetracosa-1(23),5(10),6,8,19,21-hexaene-2,2,4-trione]
ring closure, yield after HPLC ([1]; from CC(C)C(COc1ccn(-c2ccc(C(=O)NS(=O)(=O)c3cccc(NCCOC4CN(C(=O)OC(C)(C)C)C(C)(C)C4)n3)c(Cl)n2)n1)C(C)C, 15-membered ring, K2CO3/CsF/3A MS, 78.4 mM, 140.0 °C, 2 steps): 44%
EC50 [2]: < 1000 nM
Max. Activity [2]: +++ (+++ is >60%)
